Assay results from patent publication US20010053781A1, “Pharmaceutical composition for enhancing cognition” (National Science Council, priority 2000, published 2001).

Key:
[1] = tested on: scopolamine (SCOP)-induced acquisition impairment of passive avoidance response in rats; assay: Passive avoidance task, scopolamine-induced acquisition impairment; type: in vivo, rat; conditions: ferulic acid at 50-100 mg/ml (printed), i.p. 1 hour before training trial, scopolamine 1 mg/kg i.p., FIG. 1
Experimental: (§1) Male Sprague-Dawley rats, weighing 200-250 grams, were housed in groups of six with free access to food and water and kept in a regulated environment (23±1° C.), wherein a 12-hour light-dark cycle (08:00-20:00 hours light) was maintained. Each experimental group included 12-18 rats. Rats were trained in a step-through passive avoidance task (Muromachi Kikai Co. Ltd. Japan). The apparatus consisted of two compartments having a steel-rod grid floor (36 parallel steel rods, 0.3 cm in diameter set 1.5 cm apart). One of the compartments (48×20×30 cm) was equipped with a 20 Watt lamp located centrally at a height of 30 cm, and the other was a dark compartment of the same size connected through a guillotine door (5×5 cm). The dark room was used during the experimental sessions that were conducted between 09:00 and 17:00. During the trial training, the guillotine door connecting the light and dark compartment was kept closed. After each rat was placed in the light compartment with its back to the guillotine door, the door was opened and simultaneously the time (step-through latency; STL) taken by the rat to enter the dark compartment was measured with a stopwatch^(14). Once the rat entered the dark compartment, the door was closed. An inescapable scrambled footshock (1.0 mA for 2 sec) was then delivered through the grid floor. […]

[2] = tested on: mecamylamine-induced acquisition impairment of passive avoidance response in rats; assay: Passive avoidance task, mecamylamine-induced acquisition impairment; type: in vivo, rat; conditions: ferulic acid at 50-100 mg/ml (printed), i.p. 1 hour before training trial, mecamylamine 10 mg/kg i.p., FIG. 2
Experimental: as §1

[3] = tested on: pirenzepine-induced acquisition impairment of passive avoidance response in rats; assay: Passive avoidance task, pirenzepine-induced acquisition impairment; type: in vivo, rat; conditions: ferulic acid at 50-100 mg/ml (printed), i.p., pirenzepine 1 mg/kg i.p., FIG. 3
Experimental: as §1

[4] = tested on: cycloheximide (CXM)-induced memory storage impairment of passive avoidance response in rats; assay: Passive avoidance task, cycloheximide-induced memory consolidation impairment; type: in vivo, rat; conditions: ferulic acid at 50-100 mg/ml (printed), administered 60 minutes before the training trial, cycloheximide 1.5 mg/kg s.c., FIGS. 4-5
Experimental: as §1

[5] = tested on: scopolamine plus mecamylamine-induced acquisition impairment of passive avoidance response in rats; assay: Passive avoidance task, scopolamine plus mecamylamine-induced acquisition impairment; type: in vivo, rat; conditions: ferulic acid at 50-100 mg/ml (printed), scopolamine and mecamylamine co-administered under the threshold dosage, FIG. 6
Experimental: as §1

[6] = tested on: scopolamine (SCOP)-induced acquisition impairment of passive avoidance response in rats; assay: Passive avoidance task, scopolamine-induced impairment with peripheral antagonist scopolamine methylbromide; type: in vivo, rat; conditions: FIG. 7
Experimental: as §1

[7] = tested on: AF64A-induced impairment of passive avoidance response in rats; assay: Passive avoidance task, AF64A-induced impairment; type: in vivo, rat; conditions: ferulic acid at 50-100 mg/kg, AF64-A 3 nmol/μl/brain into lateral ventricle 10 days before training, FIG. 8
Experimental: Male Sprague-Dawley rats, weighing 200-250 grams, were housed in groups of six with free access to food and water and kept in a regulated environment (23±1° C.), wherein a 12-hour light-dark cycle (08:00-20:00 hours light) was maintained. Each experimental group included 12-18 rats.
Rats were trained in a step-through passive avoidance task (Muromachi Kikai Co. Ltd. Japan). The apparatus consisted of two compartments having a steel-rod grid floor (36 parallel steel rods, 0.3 cm in diameter set 1.5 cm apart). One of the compartments (48×20×30 cm) was equipped with a 20 Watt lamp located centrally at a height of 30 cm, and the other was a dark compartment of the same size connected through a guillotine door (5×5 cm). […]
During the trial training, the guillotine door connecting the light and dark compartment was kept closed. After each rat was placed in the light compartment with its back to the guillotine door, the door was opened and simultaneously the time (step-through latency; STL) taken by the rat to enter the dark compartment was measured with a stopwatch^(14). […] The rat was once again placed in the light compartment and as in the case of the training trial, the guillotine door was opened and the step-through latency was recorded and used as a measure of retention. […]
The step-through latency of rats in light compartment was recorded according to the method described in Example 1. […]

[8] = tested on: deficit of place learning in the Morris water maze task induced by scopolamine in rats; assay: Morris water maze test, scopolamine-induced deficit of place learning; type: in vivo, rat; conditions: 50-100 mg/kg ferulic acid i.p., scopolamine 0.3 mg/kg i.p., FIG. 9
Experimental: The water maze apparatus (Columbus Instruments Intl. Co., USA) was used in this Example. The swimming time and track of rats in the water maze were monitored by the Videomex V System and recorded by computer software. The water maze apparatus consisted of a water tank of 180 cm in diameter and 35 cm in height. The water stained as milk-white color was poured into the tank (25 cm in depth, 23±1° C.) before the training trial. The tank was conceptually divided into the 4 quadrants of east, west, south and north on the computer. An acrylic plate of 10 cm in diameter was placed at the north quadrant 1 cm below the water level. Rats were trained 4 times per day as one training course for 5 days. In one training course, each rat swam to the acrylic plate from 4 different quadrants, respectively. 10 seconds after swimming to the acrylic plate, the rat was returned to the home cage. After 30 seconds of rest, the next training session was carried out. The swimming time from the beginning to the acrylic plate was recorded, and an upper cut-off time of 60 seconds was set^(18). Ferulic acid (Sigma) was freshly dissolved in carboxy-methyl cellulose, and administered to rats (50, 100 mg/kg, i.p.) 1 hour before the training trial in combination with the following drug: scopolamine HBr (muscarinic receptor blocker; 0.3 mg/kg, i.p.) 30 minutes before the training trial for inducing acquisition impairment.

[9] = tested on: cerebral blood flow rate in rats; assay: Cerebral blood flow rate by laser Doppler flowmetry; type: in vivo, rat; conditions: 50-100 mg/kg ferulic acid, from 10 to 40 minutes after administration, FIG. 10
Experimental: The cerebral blood flow rate was measured by laser Doppler flowmetry in rats according to the procedure described in Morikawa, E. et al.^(19).

[10] = administered intravenously; reported by Xu et al.; cited from earlier work

For `COc1cc(C=CC(=O)O)ccc1O` [ferulic acid, 4-hydroxy-3-methoxycinnamic acid], the “effect on scopolamine-induced acquisition impairment (step-through latency, passive avoidance)” value [1] was “attenuates”, the “effect on mecamylamine-induced acquisition impairment (step-through latency, passive avoidance)” value [2] was “attenuates” and the “effect on pirenzepine-induced acquisition impairment (step-through latency, passive avoidance)” value [3] was “counteracts”. For the same compound, the “effect on CXM-induced consolidation impairment (step-through latency, passive avoidance)” value [4] was “significantly ameliorates”, the “effect on learning impairment induced by scopolamine plus mecamylamine (passive avoidance)” value [5] was “attenuates” and the “blocking of the counteracting effects of ferulic acid on scopolamine-induced learning impairment by peripheral cholinergic antagonist scopolamine methylbromide” value ([6]; ferulic acid 100 mg/kg with scopolamine methylbromide 0.5 mg/kg i.p.) was “does not block”. For the same compound, the “effect on scopolamine-induced acquisition impairment (passive avoidance)” value ([6]; ferulic acid at 100 mg/kg, scopolamine 0.3 mg/kg i.p.) was “ameliorates”, the “effect on memory impairment induced by AF64A (passive avoidance)” value [7] was “counteracts” and the “effect on scopolamine-induced acquisition impairment in a water maze” value [8] was “ameliorates”. For the same compound, the “effect on cerebral blood flow rate” value [9] was “enhances” and the “half lethal dose (LD50)” value [10] was 866 ± 29 mg/kg.
